Drawing on US12351570B2 (MERCK PATENT GMBH, priority 2018, dated 2025), this text covers IC50 for 36 molecules.

One experiment concerns MDA-MB-231 cells. Put plainly: Extracellular lactate production inhibition after 4 h, MDA-MB-231. The following applies: Homo sapiens, MDA-MB-231.
By IC50 is commonly meant the concentration at which inhibition is half-maximal. A high value points to a need for much substance. Turning to `COc1ccccc1-c1cccc(CN(C=O)c2ccccc2C#Cc2ccc(C(=O)O)nc2)c1` [Compound 179, 5-(2-{2-[N-({2′-methoxy-[1,1′-biphenyl]-3-yl}methyl)formamido]phenyl}ethynyl) pyridine-2-carboxylic acid], the IC50 was in the range of 100 to 1000 nM.

Turning to `Cn1c2ccccc2c2c(S(=O)(=O)Nc3ccccc3C#Cc3ccc(C(=O)O)nc3)cccc21` [Compound 198, 5-{2-[2-(9-methyl-9H-carbazole-4-sulfonamido)phenyl]ethynyl}pyridine-2-carboxylic acid], the IC50 is 100 to 1000 nM.

`CCNc1cc(C#Cc2ccccc2NS(=O)(=O)c2cccc3cccnc23)cnc1C(=O)O` [Compound 394, 3-(ethylamino)-5-{2-[2-(quinoline-8-sulfonamido)phenyl]ethynyl}pyridine-2-carboxylic acid] yielded an IC50 of 1 to 10 nM.

On to `CC(C)Oc1ccc2cccnc2c1S(=O)(=O)Nc1ccccc1C#Cc1ccc(C(=O)O)nc1` [Compound 211, 5-(2-{2-[7-(propan-2-yloxy)quinoline-8-sulfonamido]phenyl}ethynyl)pyridine-2-carboxylic acid], for which the IC50 fell in the range of 10 to 100 nM.

As to `CC(=O)N(Cc1ccc2ccccc2n1)c1ccccc1C#Cc1ccc(C(=O)O)nc1` [Compound 121, 5-[2-(2-{N-[(quinolin-2-yl)methyl]acetamido}phenyl)ethynyl]-pyridine-2-carboxylic acid], the IC50 lay within 100 to 1000 nM.

`CNC(=O)c1ccc(C#Cc2ccccc2NS(=O)(=O)c2ccc(OC)c3cccnc23)cn1` [Compound 156, 5-{2-[2-(5-methoxyquinoline-8-sulfonamido)phenyl]ethynyl}-N-methylpyridine-2-carboxamide] gave a concentration for half-maximal inhibition (IC50) of 1000 to 100000 nM.

For the molecule `Cc1ccc(S(=O)(=O)Nc2ccccc2C#Cc2ccc(C(=O)O)nc2)c2ncccc12` [Compound 374, 5-{2-[2-(5-methylquinoline-8-sulfonamido)phenyl]ethynyl}pyridine-2-carboxylic acid], the IC50 was in the range of 100 to 1000 nM.

Consider `Cc1cc(C#Cc2ccccc2NS(=O)(=O)c2cccc3ccccc23)ccc1C(=O)O` [Compound 80, 2-methyl-4-{2-[2-(naphthalene-1-sulfonamido)phenyl]ethynyl}benzoic acid], for which the IC50 was 100 to 1000 nM.

`O=C(O)c1ccc(C#Cc2ccccc2NS(=O)(=O)c2cccc3cc(Cl)cnc23)cc1` [Compound 270, 4-[2-(3-Chloro-quinoline-8-sulfonyl-amino)-phenylethynyl]-benzoic acid] registered an IC50 of 100 to 1000 nM.

As to `CS(=O)(=Nc1ccccc1C#Cc1ccc(C(=O)O)nc1)c1cccc(F)c1` (stereo not drawn) [Compound 436, 5-[2-(2-{[(3-fluorophenyl)(methyl)oxo-λ6-sulfanylidene]amino}phenyl)ethynyl] pyridine-2-carboxylic acid], the IC50 was in the range of 1000 to 100000 nM.

`COc1ccc(S(=O)(=O)Nc2ccc(F)cc2C#Cc2ccc(C(=O)NC#N)nc2)c2ccccc12` [Compound 256, N-cyano-5-{2-[5-fluoro-2-(4-methoxynaphthalene-1-sulfonamido)-phenyl]ethynyl}pyridine-2-carboxamide] gave an IC50 of 1000 to 100000 nM.

With `COc1ccc(S(=O)(=O)Nc2ccccc2C#Cc2ccc(C(=O)O)cc2)c2c1CCCC2` [Compound 11, 4-{2-[2-(4-methoxy-5,6,7,8-tetrahydronaphthalene-1-sulfonamido)phenyl]ethynyl}benzoic acid], the IC50 lay within 100 to 1000 nM.

`COc1cccc(S(=O)(=O)Nc2ccccc2C#Cc2ccc(C(=O)O)nc2)c1` [Compound 12, 5-{2-[2-(3-methoxybenzenesulfonamido)phenyl]-ethynyl}pyridine-2-carboxylic acid] registered an IC50 of 1000 to 100000 nM.

Consider `O=C(O)c1ccc(C#Cc2ccccc2NS(=O)(=O)c2ccc3c(c2)CCO3)cc1` [Compound 3, 4-{2-[2-(2,3-dihydro-1-benzofuran-5-sulfonamido)phenyl]ethynyl}benzoic acid], for which the IC50 fell in the range of 1000 to 100000 nM.

In turn, `O=C(O)c1ccc(C#Cc2cccc(F)c2NS(=O)(=O)c2ccc3ccccc3c2)cc1` [Compound 32, 4-{2-[3-fluoro-2-(naphthalene-2-sulfonamido)phenyl]ethynyl}benzoic acid] came in with an IC50 of 100 to 1000 nM.

`Cn1c2ccccc2c2cc(S(=O)(=O)Nc3ccccc3C#Cc3ccc(C(=O)O)nc3)ccc21` [Compound 227, 5-{2-[2-(9-methyl-9H-carbazole-3-sulfonamido)phenyl]ethynyl}pyridine-2-carboxylic acid] displayed an IC50 of 10 to 100 nM.

As to `COc1ccc(S(=O)(=O)Nc2ccccc2C#Cc2ccc(C(=O)OCc3ccccc3)nc2)c2ncccc12` [Compound 172, benzyl 5-{2-[2-(5-methoxyquinoline-8-sulfonamido)phenyl]ethynyl}pyridine-2-carboxylate], the IC50 lay within 10 to 100 nM.

Molecule `O=C(O)c1ccc(C#Cc2ccccc2NS(=O)(=O)c2ccc(Br)c3ccccc23)cn1` [Compound 128, 5-{2-[2-(4-bromonaphthalene-1-sulfonamido)phenyl]ethynyl}pyridine-2-carboxylic acid] yielded an IC50 of 100 to 1000 nM.

Molecule `COC(=O)c1cc(Cl)c(C#Cc2ccccc2NS(=O)(=O)c2c(C)ccc3cccnc23)cn1` [Compound 152, methyl 4-chloro-5-{2-[2-(7-methylquinoline-8-sulfonamido)phenyl]-ethynyl}pyridine-2-carboxylate] gave an IC50 of 10 to 100 nM.

Regarding `C#CCOc1ccnc2c(S(=O)(=O)Nc3ccccc3C#Cc3ccc(C(=O)O)nc3)cccc12` [Compound 354, 5-(2-{2-[4-(prop-2-yn-1-yloxy)quinoline-8-sulfonamido]phenyl}ethynyl)pyridine-2-carboxylic acid], the IC50 lay within 100 to 1000 nM.

The molecule `Cc1ccc2cccnc2c1S(=O)(=O)Nc1ccc(N(C)C)cc1C#Cc1ccc(C(=O)O)nc1` [Compound 248, 5-{2-[5-(dimethylamino)-2-(7-methylquinoline-8-sulfonamido)phenyl]ethynyl}pyridine-2-carboxylic acid] came in with an IC50 of 100 to 1000 nM.

Turning to `O=C(O)c1ccc(C#Cc2ccccc2NS(=O)(=O)c2ccc3ccccc3c2)c(F)c1` [Compound 30, 3-fluoro-4-{2-[2-(naphthalene-2-sulfonamido)phenyl]ethynyl}benzoic acid], the IC50 fell in the range of 100 to 1000 nM.

In turn, `COc1ccc(S(=O)(=O)Nc2cccc(Cl)c2C#Cc2ccc(C(=O)O)nc2)c2ncccc12` [Compound 351, 5-{2-[2-chloro-6-(5-methoxyquinoline-8-sulfonamido)phenyl]ethynyl}pyridine-2-carboxylic acid] had an IC50 of 100 to 1000 nM.

In turn, `Cc1ccc2cccnc2c1S(=O)(=O)Nc1cc(F)c(Br)cc1C#Cc1ccc(C(=O)O)nc1` [Compound 341, 5-{2-[5-bromo-4-fluoro-2-(7-methylquinoline-8-sulfonamido)phenyl]-ethynyl}pyridine-2-carboxylic acid] registered an IC50 of 1 to 10 nM.

On to `O=C(O)c1ccc(C#Cc2ccc(F)cc2NS(=O)(=O)c2cccc3ccccc23)cn1` [Compound 285, 5-{2-[4-fluoro-2-(naphthalene-1-sulfonamido)phenyl]ethynyl}pyridine-2-carboxylic acid], for which the IC50 was 100 to 1000 nM.

In the case of `Cc1ccnc2c(S(=O)(=O)Nc3ccccc3C#Cc3ccc(C(=O)O)nc3)cccc12` [Compound 264, 5-[2-(4-Methyl-quinoline-8-sulfonyl-amino)-phenylethynyl]-pyridine-2-carboxylic acid], the half-maximal inhibitory concentration (IC50) was 100 to 1000 nM.

`O=C(O)c1ccc(C#Cc2ccccc2NS(=O)(=O)c2cccc3scnc23)cn1` [Compound 109, 5-{2-[2-(1,3-benzothiazole-4-sulfonamido)phenyl]ethynyl}pyridine-2-carboxylic acid] came in with an IC50 of 100 to 1000 nM.

`Cc1ccc2cccnc2c1S(=O)(=O)Nc1ccc(F)cc1C#Cc1ccc(C(=O)O)nc1` [Compound 112, 5-{2-[5-fluoro-2-(7-methylquinoline-8-sulfonamido)phenyl]ethynyl}pyridine-2-carboxylic acid] displayed an IC50 of 10 to 100 nM.

For the molecule `Cc1cc(C(=O)O)ncc1C#Cc1cc(F)ccc1NS(=O)(=O)c1c(C)ccc2cccnc12` [Compound 148, 5-{2-[5-fluoro-2-(7-methylquinoline-8-sulfonamido)phenyl]ethynyl}-4-methylpyridine-2-carboxylic acid], the IC50 was 10 to 100 nM.

Molecule `COc1ccc(S(=O)(=O)Nc2ccccc2C#Cc2ccc(C(=O)O)cc2)cc1OC` [Compound 263, 4-[2-(3,4-Dimethoxy-benzenesulfonyl-amino)-phenylethynyl]-benzoic acid] registered an IC50 of 1000 to 100000 nM.

`COC(=O)c1ccc(C#Cc2ccccc2NS(=O)(=O)c2cnn(-c3ccccc3)c2)cn1` [Compound 136, methyl 5-{2-[2-(1-phenyl-1H-pyrazole-4-sulfonamido)phenyl]ethynyl}pyridine-2-carboxylate] returned an IC50 of 1000 to 100000 nM.

The molecule `O=C(O)c1ccc(C#Cc2ccccc2NS(=O)(=O)c2cccc3c(N4CCOCC4)ccnc23)cn1` [Compound 422, 5-[2-(4-Morpholin-4-yl-quinoline-8-sulfonylamino)-phenylethynyl]-pyridine-2-carboxylic acid] registered a concentration for half-maximal inhibition (IC50) of 1000 to 100000 nM.

The molecule `COc1ccc(S(=O)(=O)Nc2ccc(-c3ccccc3)cc2C#Cc2ccc(C(=O)O)nc2)c2ncccc12` [Compound 350, 5-{2-[4-(5-methoxyquinoline-8-sulfonamido)-[1,1′-biphenyl]-3-yl]ethynyl}pyridine-2-carboxylic acid] yielded an IC50 of 100 to 1000 nM.

`COc1ccc(S(=O)(=O)N(C)c2ccccc2C#Cc2ccc(C(=O)O)nc2)c2ncccc12` [Compound 175, 5-{2-[2-(N-methyl5-methoxyquinoline-8-sulfonamido)phenyl]ethynyl}pyridine-2-carboxylic acid] had an IC50 of 1000 to 100000 nM.

Molecule `CNc1cc(C#Cc2ccccc2NS(=O)(=O)c2ccc(OC)c(C)c2C)cnc1C(=O)O` [Compound 378, 5-{2-[2-(4-methoxy-2,3-dimethyl-benzenesulfonamido)phenyl]ethynyl}-3-(methylamino)pyridine-2-carboxylic acid] displayed a half-maximal inhibitory concentration (IC50) of 10 to 100 nM.

The same experiment, now with this note: Table 3; group class A-D; the table does not say which assay or cell line ("the assays described above").
As to `COc1ccc(S(=O)(=O)Nc2ccc(F)cc2C#Cc2ccc(C(=O)NS(C)(=O)=O)nc2)c2ccccc12` [Compound 255, 4-Methoxy-naphthalene-1-sulfonic acid [4-fluoro-2-(6-methanesulfonyl-aminocarbonyl-pyridin-3-ylethynyl)-phenyl]-amide], the IC50 lay in the range of 1000 to 100000 nM.
